Test results reported in patent US20230271956A1, “AMIDE DERIVATIVES” (Merck Patent GmbH, priority 2020, published 2023).

Columns and labels:
CHO-K1 cells = assay: Micronucleus assay (MNT) in vitro; assay type: cell-based; design: key: A: negative, putative negative (micronuclei detected beyond threshold of 60% cyctotoxicity); B: positive; details: 24 hrs treatment, 0.2 µM to 100 µM
Description: The in vitro MNT assay is performed in CHO-K1 cells due to their stable and welI-characterized karyotype, high sensitivity and suitability for a high content imaging approach. They have a basal spontaneous micronucleus frequency of 3-4%.
24 hrs after plating CHO-K1 cells are treated with test compounds for 24 hrs (in duplicates; fixed concentration ranges from 0.2 µM to 100 µM in 2-fold dilution steps). After a medium change cells are incubated for 24 hrs with Cytochalasin B to block cytokinesis and are then fixed and nuclei / micronuclei visualized with a DNA stain. Images are acquired with the Molecular Devices high content imagers IXU or IXM and are analyzed with the dedicated MetaXpress software micronucleus module. Criteria for scoring of micronuclei (MN) are the following: • diameter of the MN should be less than ⅓ of the main nucleus • MN should be separated from or marginally overlap with main nucleus (= no blebs) • MN should have similar staining as the main nucleus At least 1000 binucleated cells are evaluated per treatment replicate. Mitomycin C is used as reference stimulator of micronucleus formation. Cytotoxicity is evaluated in parallel and defined by comparing total nuclei count in compound-treated samples to neutral control samples treated with vehicle only (1% DMSO) (100% cytotoxicity means all cells are dead or lost).
A test compound is regarded as POSITIVE if generation of micronuclei and exhibition of less than 60% cytotoxicity at the same concentration can be observed.
Compounds are scored only in the soluble concentration range. Experimental data of the compounds shown in Table 1 in the MNT assay are shown in Table 2 below and classified in the following groups: […]

human rec ACSS2 = target: T1, human rec ACSS2 (Homo sapiens, UniProt Q9NR19); assay: Biochemical activity ACSS2 assay (AMP-Glo); details: human recombinant ACSS2, AMP-Glo, 180 min at 37° C.
T1 construct: myc (C); purchased Origene
T1 sequence (Q9NR19 whole entry): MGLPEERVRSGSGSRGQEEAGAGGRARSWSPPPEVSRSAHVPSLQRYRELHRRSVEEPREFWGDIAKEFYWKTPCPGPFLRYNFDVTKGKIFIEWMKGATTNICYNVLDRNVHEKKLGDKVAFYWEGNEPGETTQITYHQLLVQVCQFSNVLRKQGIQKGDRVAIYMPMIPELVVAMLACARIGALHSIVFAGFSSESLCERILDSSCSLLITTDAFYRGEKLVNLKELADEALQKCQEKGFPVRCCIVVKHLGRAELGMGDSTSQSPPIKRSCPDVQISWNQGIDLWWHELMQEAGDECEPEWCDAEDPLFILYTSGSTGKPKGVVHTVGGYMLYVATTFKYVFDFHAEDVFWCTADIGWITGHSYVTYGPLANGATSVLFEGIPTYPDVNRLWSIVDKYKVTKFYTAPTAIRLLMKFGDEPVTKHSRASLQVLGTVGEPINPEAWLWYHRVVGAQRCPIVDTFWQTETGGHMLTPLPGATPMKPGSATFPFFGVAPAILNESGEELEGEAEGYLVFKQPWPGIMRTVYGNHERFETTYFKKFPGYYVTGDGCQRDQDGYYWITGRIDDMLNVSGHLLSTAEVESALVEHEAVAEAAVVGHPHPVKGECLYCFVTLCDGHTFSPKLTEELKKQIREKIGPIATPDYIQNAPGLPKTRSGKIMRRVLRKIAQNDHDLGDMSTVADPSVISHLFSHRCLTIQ
Outline: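 C-terminal myc-tagged human recombinant ACSS2 (1 nM) reacted with 100 µM ATP, 100 µM CoA and 500 µM acetate (final) in pH 7.5 Hepes buffer for 180 min at 37° C, compound in 10 concentrations from 30 µM. Released AMP detected by AMP-Glo luminescence. IC50 normalised to inhibitor-free reaction and 5 µM reference inhibitor.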

ACSS2 [1] = target: T2, ACSS2 (Homo sapiens, UniProt Q9NR19); assay: Cellular assay of 14C acetate incorporation into histones (IC50 ACSS2 cellular histone); assay type: cell-based; details: HCT-15 cells
T2 construct: endogenous fatty acid synthesis activity in the human HCT-15 cancer cell line; endogenous in cells; host or cells: HCT-15
T2 sequence (Q9NR19 whole entry): as above
Outline: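 Human HCT-15 cells preincubated 1 h with compound (0.25% DMSO final), then pulsed 3 h with 14C-acetate. Histones were acid-extracted (0.2 M HCl, overnight, 4° C) after Triton lysis in sodium-butyrate buffer; incorporated 14C counted by liquid scintillation (CPM) to give IC50.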

ACSS2 [2] = target: T2, ACSS2; assay: Cellular assay of 14C acetate incorporation into fatty acids (IC50 ACSS2 cellular lipids); assay type: cell-based; details: HCT-15 cells
Description: This protocol describes a cellular assay capable to quantify endogenous fatty acid synthesis activity in the human HCT-15 cancer cell line following the incorporation of extracellularly administered radiolabeled ^14C acetate with a scintillation proximity based read out on extracted fatty acids.
HCT-15 cells were grown in RPMI 1640 (Gibco) supplemented with 2 mM glutamine, 1 mM sodium pyruvate 10 mM HEPES and 10 % FCS (heat-inactivated) passaged every 2-3 days to remain a subconfluent, vital culture. A working cell bank was prepared with each aliquot containing 1x10^7 viable cells. After thawing, these cells are dilute immediately 1:20 in pre-warmed (37° C.) culture medium. Cells are collected by centrifugation at 200 x g for 5 min, and the supernatant is replaced by 30 mL of fresh culture medium per aliquot to obtain a cell suspension containing 350000 cells/ml. From this cell suspension 100 µL are dispersed into each well of a collagen coated 96 well plate, (black, clear bottom, PS, F-bottom, Greiner) and culture for 24 h (37° C., 5% CO2). After incubation the culture medium is removed and the wells are washed once with 100 µL PBS++ (supplemented with Mg^2+/ Ca^2+, Gibco) and 50 µL assay medium (RPMI 1640 + 10 mM HEPES) are added to each well. Compounds serial dilutions are prepared from 10 mM stock solutions in DMSO using a fixed dilution factor (usually 1:3). After preparation of the dilution series in DMSO, the individual dilutions are further diluted in the assay medium. This working dilution is prepared such, that the concentration is 7x of the final concentration in the assay. The maximal DMSO concentration in the final assay is 0.1%.
To each well 10 µL compound working dilution or DMSO blank are added and the cells are cultured for 2 h (37° C., 5% CO2). Then 10 µL AlamarBlue reagent (Invitrogen) containing 14 µCi/mL ^14C-acetate (Perkin Elmer) are added to each well (70 µl total volume) and cells are again cultured for 2 h. Cell viability is verified by measuring the AlamarBlue fluorescence (Tecan Safire, ex: 544 nm / em: 590 nm). After incubation the culture medium is removed and the wells are carefully washed once with cold 100 µL PBS++. For cell lysis and fatty acid recovery 50 µl 0.1 M NaOH and 0.1 % Triton-X100 are added per well. The plate is sealed with PlateLoc (clear peelable heat seal, Agilent) and incubate at 70° C. for 16-24 h. After cooling to room temperature, the plates are centrifuged for 1 min at 1000 rpm and the plate seals are removed. For acidification 150 µL 0.1 M HCl are added to each well, mixed and 150 µL of the mixture are transferred into a 96 well FlashPlate (Perkin Elmer). The plates are sealed with TopSeaI-a (Perkin Elmer). To allow for the fatty acid binding to the well surfaces the plates are incubate for 4 h at 70° C. After cooling to room temperature, the plates are centrifuged for 1 min at 1000 rpm and stored for 0.5-2 h at room temperature in the dark. Radioactivity from ^14C incorporation into fatty acids in the wells is measured as CPM count in a MicroBeta scintillation counter (Perkin Elmer).

SMILES | IC50 (human rec ACSS2) [nM] | IC50 (ACSS2 [1]) [nM] | IC50 (ACSS2 [2]) [nM] | MNT (CHO-K1 cells)
CCc1c(C(O)(c2ccccc2)c2ccccn2)nc2cc(OC)c(C(=O)Nc3ncn(CC)n3)cn12 (single isomer, unassigned) [Compound 18, 3-ethyl-N-(1-ethyl-1,2,4-triazol-3-yl)-2-[hydroxy-phenyl-(2-pyridyl)methyl]-7-methoxy-imidazo[1,2-a]pyridine-6-carboxamide] | 100 to 10000 | 100 to 10000 |  | A
CCc1c(C(O)(c2ccccc2F)c2ccccc2F)nc2cc(Cl)c(C(=O)Nc3cnn(CC)c3)cn12 [Compound 29, 2-[Bis-(2-fluoro-phenyl)-hydroxy-methyl]-7-chloro-3-ethyl-imidazo[1,2-a]pyridine-6-carboxylic acid (1-ethyl-1H-pyrazol-4-yl)-amide] | 10 to 100 | 10 to 100 |  | A
CCc1c(C(O)(c2ccccc2)c2ccccc2)nc2cc(F)c(C(=O)Nc3cnn(CC)c3)cn12 [Compound 15, 3-Ethyl-7-fluoro-2-(hydroxy-diphenylmethyl)-imidazo[1,2-a]pyridine-6-carboxylic acid (1-ethyl-1H-pyrazol-4-yl)-amide] | 10 to 100 | 10 to 100 |  | A
CCc1c(C(O)(c2ccccc2)c2ccn(C)n2)nc2cc(OC)c(C(=O)Nc3ncn(CC)n3)cn12 (single isomer, unassigned) [Compound 22, 3-Ethyl-2-[hydroxy-(1-methyl-1H-pyrazol-3-yl)-phenyl-methyl]-7-methoxy-imidazo[1,2-a]pyridine-6-carboxylic acid (1-ethyl-1H-[1,2,4]triazol-3-yl)-amide] | 10 to 100 | 10 to 100 |  | A
CCc1nnc(CNC(=O)c2cc3c(nc2OC)nc(C(O)(c2ccccc2)c2ccccc2)n3CC)o1 [Compound 62, 1-ethylN-[(5-ethyl-1,30,4-oxadiazol-2-yl)methyl]-2-(hydroxydiphenylmethyl)-5-methoxy-1H-imidazo[4,5-b]pyridine-6-carboxamide] | 10 to 100 | 10 to 100 | 1 to 10 | 
CCc1c(C(O)(c2ccccc2F)c2ccccc2F)nn2cc(OC)c(C(=O)Nc3ncn(CC)n3)cc12 [Compound 7, 2-[Bis-(2-fluoro-phenyl)-hydroxy-methyl]-3-ethyl-6-methoxy-pyrazolo[1,5-a]pyridine-5-carboxylic acid (1-ethyl-1H-[1,2,4]triazol-3-yl)-amide] | 1 to 10 | 1 to 10 |  | A
CCc1nnc(NC(=O)c2cc3c(nc2OC)nc(C(O)(c2ccccc2)c2ccccc2)n3CC)o1 [Compound 64, 1-ethyl-N-(5-ethyl-1,30,4-oxadiazol-2-yl)-2-(hydroxydiphenylmethyl)-5-methoxy-1H-imidazo[4,5-b]pyridine-6-carboxamide] | 0.01 to 1 | 10 to 100 | 0.01 to 1 | 
CCc1c(C(O)(c2ccccc2F)c2ccccc2F)nn2cc(Cl)c(C(=O)Nc3cnn(CC)c3)cc12 [Compound 12, 2-[Bis-(2-fluoro-phenyl)-hydroxy-methyl]-6-chloro-3-ethyl-pyrazolo[1,5-a]pyridine-5-carboxylic acid (1-ethyl-1H-pyrazol-4-yl)-amide] | 1 to 10 | 1 to 10 | 1 to 10 | 
CCc1c(C(O)(c2ccccc2)c2ccn(C)n2)nc2cc(OC)c(C(=O)Nc3ncn(CC)n3)cn12 (single isomer, unassigned) [Compound 21, 3-Ethyl-2-[hydroxy-(1-methyl-1H-pyrazol-3-yl)-phenyl-methyl]-7-methoxy-imidazo[1,2-a]pyridine-6-carboxylic acid (1-ethyl-1H-[1,2,4]triazol-3-yl)-amide] | 100 to 10000 |  |  | A

Second part, led by results:

IC50 (human rec ACSS2) [nM] | IC50 (ACSS2 [1]) [nM] | IC50 (ACSS2 [2]) [nM] | SMILES | MNT (CHO-K1 cells)
10 to 100 | 10 to 100 | 100 to 10000 | CCn1c(C(O)(c2ccccc2)c2ccccc2)nc2nc(OC)c(C(=O)Nc3ncn(CCOC)n3)cc21 [Compound 68, 1-ethyl-2-(hydroxydiphenylmethyl)-5-methoxy-N-[1-(2-methoxyethyl)-1H-1,2,4-triazol-3-yl]-1H-imidazo[4,5-b]pyridine-6-carboxamide] | 
1 to 10 | 1 to 10 | 1 to 10 | CCn1cnc(NC(=O)c2cc3c(nc2OC)nc(C(O)(c2ccccc2)c2ccccc2)n3CC)c1 [Compound 76, 1-ethyl-N-(1-ethyl-1H-imidazol-4-yl)-2-(hydroxydiphenylmethyl)-5-methoxy-1H-imidazo[4,5-b]pyridine-6-carboxamide] | 
1 to 10 | 1 to 10 | 10 to 100 | CCn1cnc(NC(=O)c2cc3c(nc2C)nc(C(O)(c2ccccc2)c2ccccc2)n3CC)n1 [Compound 108, 1-ethyl-N-(1-ethyl-1H-1,2,4-triazol-3-yl)-2-(hydroxydiphenylmethyl)-5-methyl-1H-imidazo[4,5-b]pyridine-6-carboxamide] | 
1 to 10 | 10 to 100 | 10 to 100 | CCn1c(C(O)(c2ccccc2)c2ccccc2)nc2nc(OC)c(C(=O)Nc3ncn(CCO)n3)cc21 [Compound 73, 1-ethyl-2-(hydroxydiphenylmethyl)-N-[1-(2-hydroxyethyl)-1H-1,2,4-triazol-3-yl]-5-methoxy-1H-imidazo[4,5-b]pyridine-6-carboxamide] | 
10 to 100 | 1 to 10 | 1 to 10 | CCn1cc(NC(=O)c2cc3c(nc2F)nc(C(O)(c2ccccc2)c2ccccc2)n3CC)cn1 [Compound 92, 1-ethyl-N-(1-ethyl-1H-pyrazol-4-yl)-5-fluoro-2-(hydroxydiphenylmethyl)-1H-imidazo[4,5-b]pyridine-6-carboxamide] | 
